Values quoted from earlier work, collected in US20090023784A1, “USE OF DEFERIPRONE AND METHODS TO TREAT AND/OR PREVENT FRIEDREICH ATAXIA RESULTING FROM INTRACELLULAR MISHANDLING OF IRON” (priority 2006, published 2009).

System: intracellular iron pools of macrophages, hepatocytes, and cardiomyocyte cell lines
Details: living cells, fluorescence probes; cited from earlier work

CC(=O)N(O)CCCCCNC(=O)CCC(=O)N(O)CCCCCNC(=O)CCC(=O)N(O)CCCCCN [desferrioxamine]
access to intracellular iron pools / chelation: slow
